Where “and” joins values, the source holds several entries; their conditions need not be identical. Equal entries are not always repeated. Entries after “also recorded” stand apart in the source; their conditions may differ.
What was measured:
[1] = tested on: 93T449 liposarcoma cell line; assay: Luminex cytokine profiling; assay type: cell-based, Human; conditions: 93T449, 0.5 μM 9-ING-41 for 24 hours
Procedure: (§1) Saos-2 osteosarcoma and 93T449 liposarcoma cell lines were pretreated at IC5072 with small molecule GSK-3 inhibitor 9-ING-41 (elraglusib). The cells were harvested for western blot analysis after 48 hours of treatment. Additionally, both cancer cell lines as well as TALL-104 T-cells and NK-92 NK cells were treated with 0.5 μM 9-ING-41 for 24 hours and harvested for Luminex cytokine profiling. […] Additionally, an increase in PD-L1 expression was observed. […] Follow-up cytokine profiling is in progress. […] The potential synergistic effect of these two therapies is currently under investigation with co-culture experiments of sarcoma and immune cells. The treatment cohorts for these experiments include 9-ING-41 combined with either anti-PD-L1, anti-PD-1, or anti-CTLA-4 immune checkpoint inhibitors.

[2] = tested on: Saos-2 osteosarcoma cell line; assay: Luminex cytokine profiling; assay type: cell-based, Human
Procedure: as §1

[3] = Human pharmacokinetics of 9-ING-41 from study NCT03678883; conditions: in vivo, intravenous, dose 9.3 mg/kg (current dose)
Text: Example 1. Human Pharmacokinetics of 9-ING-41 from Study

[4] = 1801 adult study, tolerated dose level; assay type: in vivo, human (adult)
[5] = tested on: refractory malignancies; assay: Phase 1/2 study of 9-ING-41 as a single agent or with chemotherapy in pediatric patients with refractory malignancies; assay type: in vivo, human (pediatric patients); conditions: for OS (overall survival) / Notes (response): intermediate data; for Best Response / Status Last FUP / Survival: unaudited data
[6] = tested on: 93T449 liposarcoma cell line; assay: Western blot analysis after 9-ING-41 treatment; assay type: cell-based, Human; conditions: 93T449, pretreated at IC5072, harvested after 48 hours
Procedure: as §1

[7] = tested on: Saos-2 osteosarcoma cell line; assay: Western blot analysis after 9-ING-41 treatment; assay type: cell-based, Human; conditions: Saos-2, pretreated at IC5072, harvested after 48 hours
Procedure: as §1

[8] = tested on: TALL-104 T-cells; assay: Luminex cytokine profiling; assay type: cell-based; conditions: 0.5 μM 9-ING-41 for 24 hours
Procedure: as §1

[9] = tested on: NK-92 NK cells; assay: Luminex cytokine profiling; assay type: cell-based; conditions: NK-92 cells, 0.5 μM 9-ING-41 for 24 hours
Procedure: as §1

[10] = CIC rearranged sarcoma patient, elraglusib 15 mg/kg + Cyclophosphamide/topotecan
[11] = Ependymoma patient, elraglusib 9.3 mg/kg + Cyclophosphamide/topotecan
[12] = Ependymoma patient, elraglusib 12.4 mg/kg, chemotherapy backbone N/A
[13] = Ependymoma patient, elraglusib 15 mg/kg + Irinotecan
[14] = Ewing sarcoma patient, 9-ING-41 9.3 mg/kg + Cyclophosphamide/topotecan
[15] = Ewing sarcoma patient, elraglusib 9.3 mg/kg + Cyclophosphamide/topotecan
[16] = Ewing sarcoma patient, elraglusib 12.4 mg/kg + Cyclophosphamide/topotecan
[17] = Ewing sarcoma patient, elraglusib 15 mg/kg + Cyclophosphamide/topotecan
[18] = Glioblastoma multiforme (GBM) patient, elraglusib 12.4 mg/kg + Cyclophosphamide/topotecan
[19] = Neuroblastoma patient, 9-ING-41 12.4 mg/kg + Cyclophosphamide/topotecan
[20] = Neuroblastoma patient, elraglusib 9.3 mg/kg + Irinotecan
[21] = Neuroblastoma patient, elraglusib 12.4 mg/kg + Cyclophosphamide/topotecan
[22] = Neuroblastoma patient, elraglusib 12.4 mg/kg + Irinotecan
[23] = Neuroblastoma patient, elraglusib 15 mg/kg + Cyclophosphamide/topotecan
[24] = Osteosarcoma patient, elraglusib 9.3 mg/kg + Cyclophosphamide/topotecan
[25] = Rhabdomyosarcoma patient, elraglusib 9.3 mg/kg + Irinotecan
[26] = seven metastatic, refractory Ewing and Ewing-like sarcoma patients, elraglusib+cyclophosphamide/topotecan

## Cn1cc(C2=C(c3coc4ccc(F)cc34)C(=O)NC2=O)c2cc3c(cc21)OCO3 [9-ING-41, 3-(5-Fluorobenzofuran-3-yl)-4-(5-methyl-5H-[1,3]dioxolo[4,5-f]indol-7-yl) pyrrole-2,5-dione]
[1]
  growth factor TGF-α: homogenous increase
[2]; Saos-2 (only this cancer cell line), 0.5 μM 9-ING-41 for 24 hours
  IL-6: increase
[2]; Saos-2, 0.5 μM 9-ING-41 for 24 hours
  growth factor TGF-α: homogenous increase
[3]
  AUC(0-inf): 45700 ng·h/mL
  Cmax: 6410 ng/mL
  half-life: 18.9 ± 6.3 h
[3]; read-out: AUC(0-24)
  AUC(0-t): 42000 ng·h/mL
[4]
  highest currently tolerated dose level: tolerated dose level in the 1801 adult study (15 mg/kg).
[5]; 6 patients (2 NBL, 1 aRMS, 1 EP, 1 OS, 1 GBM)
  patients with stable disease: 26.1%
[5]; 8 pts (2 NBL, 2 EP, 1 OS, 1 aRMS, 1 ES, 1 PB)
  patients remaining on study treatment ≥3 months: 35%
[5]; Adrenocortical carcinoma patient, 9-ING-41 15 mg/kg + Cyclophosphamide/topotecan
  OS (overall survival): 102 days
[5]; Alveolar rhabdomyosarcoma patient, 9-ING-41 9.3 mg/kg + Irinotecan
  OS (overall survival): 375 days
[5]; CIC rearranged sarcoma patient, 9-ING-41 15 mg/kg + Cyclophosphamide/topotecan
  OS (overall survival): 47 days
[5]; [10]
  Best Response: PD (progressive disease)
  Status Last FUP: Dead
  Survival: 48 days
[5]; Embryonal CNS tumor NOS patient, 9-ING-41 9.3 mg/kg + Irinotecan
  OS (overall survival): 262 days
[5]; [11]
  Best Response: PD (progressive disease)
  Status Last FUP: Alive
  Survival: 182 days
[5]; [12]
  Best Response: SD (stable disease)
  Status Last FUP: Dead
  Survival: 440 days
[5]; [13]
  Best Response: SD (stable disease)
  Status Last FUP: Dead
  Survival: 757 days and 526 days
[5]; [14]
  Notes (response): pCR-
  OS (overall survival): 379 days
[5]; Ewing sarcoma patient, 9-ING-41 12.4 mg/kg + Cyclophosphamide/topotecan
  OS (overall survival): 176 days
[5]; [15]
  Status Last FUP: Alive
  Survival: 804 days
[5]; [16]
  Best Response: SD (stable disease)
  Status Last FUP: Dead
  Survival: 177 days
[5]; [17]
  Best Response: SD (stable disease); also recorded: PR (partial response)
  Status Last FUP: Dead and Alive
[5]; Glioblastoma multiforme (GBM) patient, 9-ING-41 12.4 mg/kg + Cyclophosphamide/topotecan
  OS (overall survival): 406 days
[5]; [18]
  Best Response: SD (stable disease)
  Status Last FUP: Alive
  Survival: 407 days
[5]; High grade astrocytoma patient, 9-ING-41 15 mg/kg, combo treatment N/A
  OS (overall survival): 97 days
[5]; Neuroblastoma patient, 9-ING-41 9.3 mg/kg + Irinotecan, 9.3 mg/kg
  OS (overall survival): 245 days and 389 days
[5]; [19]
  Notes (response): pCR-
  OS (overall survival): 308 days
[5]; Neuroblastoma patient, 9-ING-41 15 mg/kg + Cyclophosphamide/topotecan
  OS (overall survival): 113 days
[5]; Neuroblastoma patient, 9-ING-41 15 mg/kg + Irinotecan
  OS (overall survival): 68 days
[5]; [20]
  Best Response: SD (stable disease); also recorded: PD (progressive disease)
  Status Last FUP: Dead
  Survival: 245 days and 389 days
[5]; [21]
  Status Last FUP: Dead
  Survival: 438 days
[5]; [22]
  Best Response: SD (stable disease)
  Status Last FUP: Dead
  Survival: 360 days
[5]; [23]
  Best Response: SD (stable disease)
  Status Last FUP: Alive
  Survival: 440 days
[5]; Osteosarcoma patient, 9-ING-41 9.3 mg/kg + Cyclophosphamide/topotecan
  OS (overall survival): 389 days
[5]; [24]
  Best Response: SD (stable disease)
  Status Last FUP: Alive
  Survival: 481 days
[5]; Progressive ependymoma patient, 9-ING-41 9.3 mg/kg + Cyclophosphamide/topotecan
  OS (overall survival): 407 days
[5]; Recurrent ependymoma patient, 9-ING-41 15 mg/kg + Irinotecan
  OS (overall survival): 403 days
[5]; Rhabdomyosarcoma patient, 9-ING-41 15 mg/kg + Cyclophosphamide/topotecan
  OS (overall survival): 78 days
[5]; Rhabdomyosarcoma patient, 9-ING-41 15 mg/kg + Irinotecan
  OS (overall survival): 19 days
[5]; [25]
  Best Response: SD (stable disease)
  Status Last FUP: Dead
  Survival: 375 days
[5]; heavily pre-treated pediatric patient population
  tolerability: well tolerated
[5]; individual Ewing patients, elraglusib+cyclophosphamide/topotecan
  reduction of tumor at the 1st tumor assessment (partial remission): 52% and 96%
[5]; one metastatic, refractory Ewing patient, elraglusib+cyclophosphamide/topotecan, 2 months of treatment
  tumor response at 1st tumor assessment: complete remission
[5]; one patient with recurrent Ewing's sarcoma, after 3 cycles of elraglusib/cyclophosphamide/topotecan
  radiographic and pathologic response: complete response
[5]; same Ewing patient, stopped all treatments after 4 months
  time in remission with no evidence of disease after termination of treatment: ~2 years
[5]; [26]
  patients continuing on treatment: three of the seven
  patients remaining alive: Four of the seven
[6]
  PD-L1 expression, western blot: increase
  cPARP (apoptotic marker), western blot: increase
[7]
  PD-L1 expression, western blot: increase
  cPARP (apoptotic marker), western blot: increase
[8]
  CXCL11: increase
  IL-18: increased level
[9]
  IL-8 chemokine: increase
  soluble TRAIL (TRAIL/TNFSF10): increase
